Patent US9439915B2, “Activated nitric oxide donors and methods of making and using thereof” (University of Utah Research Foundation, priority 2008, dated 2016)

Legend:
HL-60 cells [1] = assay: In vitro cytotoxicity, MTS assay; format: cell-based
Experimental: The in vitro cytotoxicity of JS-K in Pluronic® micelles was studied in this example. JS-K was loaded in F68, P105, or F127 Pluronic® micelles as described above. […] […] Similar control experiments were set-up with equivalent concentrations of each Pluronic® micelle without JS-K. After a 3 day incubation, cell growth was measured using the MTS assay. […] Equivalent empty micelles at equal concentrations (0.08% w/v) had no significant effect on cell growth (not shown).

[2] = Stability in pooled human plasma; format: in vitro ADME; settings: 37° C., micelle 50, free 10 micromolar, average and SEM of 2
[3] = Effect on systemic blood pressure (tail cuff); format: in vivo, NOD/SCID and NOD/SCID IL2Rγ^null mice; settings: 5 μmol/kg intravenous, awake mice, up to 2 hours
Description: This example illustrates the effect of JS-K in Pluronic® micelles on systemic blood pressure. […] The proportion of JS-K to Pluronic® polymer in solution was 1.53% by weight.
Awake, unanesthetized NOD/SCID and NOD/SCID IL2Rγ^null mice were used for these experiments.

[4] = Stability in RPMI media with 10% Fetal Bovine Serum; format: in vitro ADME; settings: RPMI/10% FBS, 37° C.; micelle 50, free 10 micromolar; average and SEM of 6
HL-60 cells [5] = assay: In vivo anti-leukemic activity, HL-60 flank tumors; design: species or system NOD/SCID IL2Rγ^null mice; settings: 4 μmol/kg intravenously 3 times per week; p=0.01 by F-test
Description: This example illustrates the in vivo anti-leukemic activity of JS-K in Pluronic® micelles. NOD/SCID IL2Rγ^null mice were inoculated with 5×10^6 HL-60 cells in each flank. […] The proportion of JS-K to Pluronic® polymer in solution was 2.0% by weight. Injections were given 3 times per week intravenously. The dose of free and micelle-formulated JS-K was 4 μmol/kg. […] A linear mixed model using SAS PROC MIXED was fit to the data in FIG. 8, using a random effect to account for correlation among measurements within the same animal.

[6] = Dialysis retention of JS-K (loading in micelles); format: physicochemical; settings: 2 hours of dialysis; JS-K levels by HPLC; JS-K to polymer 10% by weight
Experimental: This example illustrates the extent of JS-K loading in micelles. JS-K was loaded in Pluronic® P123 and L121 polymers to form micelles. The proportion of JS-K to Pluronic® polymer in solution was 10% by weight. The JS-K micelle preparations were then dialyzed for 2 hours. A parallel experiment following the same procedures with free JS-K was set up as a control. After 2 hours of dialysis, JS-K levels were measured by HPLC to estimate the percent of JS-K retained.

- percent recovery after 60 minute incubation [2]: 39+/−0%
- percent recovery after 60 minute incubation [4]: 10.53+/−1.42%
- Percent retention of JS-K after dialysis [6]: 31%
Compound: CCOC(=O)N1CCN(/[N+]([O-])=N/Oc2ccc([N+](=O)[O-])cc2[N+](=O)[O-])CC1 [free JS-K, O^2-(2,4-dinitrophenyl) 1-[(4-ethoxycarbonyl)piperazin-1-yl]diazen-1-ium-1,2-diolate]
- inhibition of leukemia cell growth (HL-60 cells [1]; 0.5 μM, 3 day incubation, MTS, JS-K to polymer 4% by weight): 62%
- IC50 (HL-60 cells [1]; JS-K to polymer 1.97% by weight): 450 nM
- sustained drop in systolic blood pressure [3]: around 20 % of baseline
- rate of tumor growth, free vs micelle JS-K (linear mixed model) (HL-60 cells [5]): significantly higher
